Results: patent US8653242B2, “Therapeutic antibodies against flagellated Pseudomonas aeruginosa” (priority 2010, dated 2014)
≈ marks a conversion by molar mass, not a printed value. Like-named read-outs stand apart in the source and are kept apart here.

Tested on: Ka02 multi-drug resistant P. Aeruginosa strain
Test: Antibiogram of Ka02 (Vitek MIC); for Final (sensitive/resistant call): key: S = antibiotic sensitive; R = antibiotic resistance
Assay type: cell-based
Parameters: MIC site #2: unit not given here
Conditions: for Vitek (sensitive/resistant call): calls of the two sites; for MIC: Pseudomonas aeruginosa
[1] = read-out: MIC site #1, heading: MIC site #1, Ka02, Vitek, testing site #1
[2] = read-out: MIC site #2, heading: MIC site #2, Ka02, Vitek, testing site #2

Molecule | Final (sensitive/resistant call) (Ka02) | Vitek (sensitive/resistant call) (Ka02) | MIC [1] [µg/mL] | MIC [2] [µg/mL] | MIC (read-out: MIC site #2) [µg/mL] | MIC site #2 (Ka02, Vitek, testing site #2)
NCC[C@H](O)C(=O)N[C@@H]1C[C@H](N)[C@@H](O[C@H]2O[C@H](CN)[C@@H](O)[C@H](O)[C@H]2O)[C@H](O)[C@H]1O[C@H]1O[C@H](CO)[C@@H](O)[C@H](N)[C@H]1O [Amikacin] | S | S/S | – | – | – | –
C[C@H]1[C@H](NC(=O)/C(=N\OC(C)(C)C(=O)O)c2csc(N)n2)C(=O)N1S(=O)(=O)O [Aztreonam] | R | R | – | – | – | –
CO/N=C(\C(=O)N[C@@H]1C(=O)N2C(C(=O)[O-])=C(C[N+]3(C)CCCC3)CS[C@H]12)c1csc(N)n1 [Cefepime] | R | R/R | – | – | – | –
CO/N=C(\C(=O)N[C@@H]1C(=O)N2C(C(=O)O)=C(COC(C)=O)CS[C@H]12)c1csc(N)n1 [Cefotaxime] | R | R/R | – | – | – | –
CC(C)(O/N=C(\C(=O)N[C@@H]1C(=O)N2C(C(=O)[O-])=C(C[n+]3ccccc3)CS[C@H]12)c1csc(N)n1)C(=O)O [Ceftazidime] | S-R | S/R | 8 (≈ 14.6 µM) | – | – | –
O=C(N[C@H](CO)[C@H](O)c1ccc([N+](=O)[O-])cc1)C(Cl)Cl [Chloramphenicol] | R | R | – | – | – | –
O=C(O)c1cn(C2CC2)c2cc(N3CCNCC3)c(F)cc2c1=O [Ciprofloxacin] | R | R/R | 4 (≈ 12.1 µM) | ≥ 4 | – | –
C[C@H]1COc2c(N3CCN(C)CC3)c(F)cc3c(=O)c(C(=O)O)cn1c23 [Levofloxacin] | R | R | – | ≥ 8 | – | –
C[C@@H](O)[C@H]1C(=O)N2C(C(=O)O)=C(S[C@@H]3CN[C@H](C(=O)N(C)C)C3)[C@H](C)[C@H]12 [Meropenem] | R | R/R | – | – | – | –
CN(C)c1ccc(O)c2c1C[C@H]1C[C@H]3[C@H](N(C)C)C(O)=C(C(N)=O)C(=O)[C@@]3(O)C(O)=C1C2=O [Minocycline] | R | – | – | – | – | –
CCN1CCN(C(=O)N[C@@H](C(=O)N[C@@H]2C(=O)N3[C@@H]2SC(C)(C)[C@@H]3C(=O)O)c2ccccc2)C(=O)C1=O [Piperacillin] | R | R | – | – | – | –
CN(C)c1cc(NC(=O)CNC(C)(C)C)c(O)c2c1C[C@H]1C[C@H]3[C@H](N(C)C)C(O)=C(C(N)=O)C(=O)[C@@]3(O)C(O)=C1C2=O [Tigecycline] | R | R | – | – | ≥ 8 | –
NC[C@H]1O[C@H](O[C@H]2[C@H](O)[C@@H](O[C@H]3O[C@H](CO)[C@@H](O)[C@H](N)[C@H]3O)[C@H](N)C[C@@H]2N)[C@H](N)C[C@@H]1O [Tobramycin] | R | R/I | – | 8 (≈ 17.1 µM) | – | –
Amoxicillin/Calvulanic acid | R | R | – | – | – | 32
Ampicillin/Sulbactam | R | R/R | – | – | – | –
Colistin | S | S | – | – | – | 2
Gentamicin | – | R/S | – | – | – | 4
Piperacillin/Tazobactam | R | R/R | – | – | – | –
